The source of these data is patent US10350210B2, “EGFR and ALK dual inhibitor” (PRECEDO PHARMACEUTICALS CO., LTD, priority 2015, dated 2019).

Bounds are passed on as bounds.

In data set [1] the test system is non-small cell lung cancer cell H1975 subcutaneous tumors. Put plainly: Mouse tumor model of non-small cell lung cancer cell H1975. In kind it is in vivo. The settings on record: for tumor inhibition rate: Bal b/c mice. Here is the method: Similarly, 27 Bal b/c female mice, 4-6 weeks old, were purchased from Shanghai SLAC Laboratory Animal Co., Ltd., and maintained in an SPF laboratory. Drinking water and bedding were both sterilized by autoclaving. All operations involving the mice were performed under aseptic conditions. At day 0, 5×10^6 non-small cell lung cancer cells H1975 (purchased from ATCC) were injected subcutaneously into the left flank of all mice. At day 15, all mice were divided into three groups (9 mice per group), and the first group of mice were orally administered with methyl cellulose (HKI) solvent, the second group of mice were orally administered with Compound 1 at a dose of 25 mg/kg mouse weight, and the third group of mice were orally administered with Compound 1 at a dose of 50 mg/kg mouse weight daily. Starting from the administration, the length/width of the subcutaneous tumor was measured daily with a vernier caliper, and the weight of the mice was recorded daily to observe the effect of Compound 1 on the body weight of the mice. The mice were sacrificed at day 36 and the subcutaneous tumors were collected. The tumors were weighed, and then the tumor tissues were used to prepare protein lysates for use. The growth trend of the subcutaneous tumor within 16-36 days was plotted, wherein the tumor volume was calculated as length×width×width/2 mm^3.

The subject of data set [2] is EGFR protein (EGFR delE746_A750, PC-9). Put plainly: Effect on signaling pathway in cells, PC-9. The data set is classed as cell-based, human. The following applies: PC-9 (EGFR delE746_A750), 4 h. From the text:
In four cell lines (all purchased from ATCC) including non-small cell lung cancer cell line A549 (expressing wild-type EGFR gene), non-small cell lung cancer cell line H1975 (expressing EGFR L858R/T790M double mutant gene), non-small cell lung cancer cell line H3255 (expressing EGFR L858R mutant gene) and non-small cell lung cancer cell line PC-9 (expressing EGFR delE746_A750 mutant gene), the effect of Compound 1 on EGFR or other protein kinases related to signaling pathways of EGFR such as Stat3, AKT, ErK, eIF4E, 4EBP1, P70S6K was assessed by assaying a number of cellular biochemical and functional endpoints. […] The effect of Compound 1 on phosphorylation of Stat3Y705, AKT T308, AKT 5473, Erk T202/204, EGFR Y1068, P70S6K Thr389, eIF4E Ser209, Erk T202/204, 4EBP1 (Thr37/46) in these cell lines was assayed (FIGS. 1a to 1d).

The test system of the next data set is NCI-H2228. Put plainly: Growth of cancer cells (Cell Titer-Glo viability), NCI-H2228. The settings on record: Homo sapiens; NCI-H2228 (wild-type ALK), 72 hrs. In kind it is cell-based.
The subject of a further data set is NCI-H3122. Put plainly: Growth of cancer cells (Cell Titer-Glo viability), NCI-H3122. In kind it is cell-based. The following applies: Homo sapiens; NCI-H3122 (expressing ALK gene), 72 hrs; read-out: GI50.

`C=CC(=O)Nc1cc(Nc2ncc(Cl)c(Nc3ccccc3S(=O)(=O)C(C)C)n2)c(OC)cc1N1CCN(CC)CC1` [Compound 1, N-(5-(5-chloro-4-(2-(isopropylsulfonyl)phenylamino)pyrimidin-2-ylamino)-2-(4-ethylpiperazin-1-yl)-4-methoxyphenyl)acrylamide]: the tumor inhibition rate in data set [1] (oral daily 25 mg/kg, on the second day of administration) was determined as 70%; in data set [1] (oral daily 50 mg/kg, after 8 days of administration) it was 81.7%. The “body weight of the mice” value in data set [1] (oral daily 25 mg/kg) and in data set [1] (oral daily 50 mg/kg) was “did not decrease” in each case. Further, the “concentration able to significantly inhibit the phosphorylation of EGFR protein (also affects AKT and ERK phosphorylation)” value in data set [2] came to 0.3 µM.

A word on the GI50: it is the concentration that inhibits growth by half. For the compound `C=CC(=O)Nc1cc(Nc2ncc(Cl)c(Nc3ccccc3S(=O)(=O)C(C)C)n2)c(OC)cc1N1CCCN(C)CC1` [Compound 10, N-(5-(5-chloro-4-(2-(isopropylsulfonyl)phenylamino)pyrimidin-2-ylamino)-4-methoxy-2-(4-methyl-1,4-homopiperazin-1-yl)phenyl)acrylamide], the results for the GI50 in the data set with NCI-H2228 and in the data set with NCI-H3122 were less than 3 nM and less than 0.3 nM, respectively.
